Marks after values point to notes of the source that are not given here. Blank lines part the entries; values can stand above or below the compound they belong to.
How the values were obtained:
carbonic anhydrase II [1] = molecular target: T1, carbonic anhydrase II (Bos taurus, UniProt P00921); assay: Carbonic anhydrase refolding yield by esterase activity (pNPA)
Protocol: Esterase activity assays were performed as a function of initial unfolded protein concentration and buffer composition to determine how equimolar concentrations of NaCl, ArgHCl, and GuHCl each affected refolding yield (FIG. 16).
High concentrations of carbonic anhydrase (>300 μM) were denatured in 6M GuHCl and equilibrated overnight. Refolding was initiated by dilution to 0.5M GuHCl with 50 mM Tris-HCl buffer, pH 7.5. This final GuHCl concentration was selected because it yields a mixture of active, refolded protein and aggregates. The distribution of this mixture was analyzed via esterase activity, size exclusion HPLC, and dynamic light scattering as described above.
Carbonic Anhydrase Esterase Activity—Esterase activity of carbonic anhydrase was assessed using para-nitrophenylacetate (pNPA) as the substrate as described previously. […] Briefly, 10 μl samples of carbonic anhydrase solution were added to 500 μl of Tris-HCl, pH 7.5 and 50 μl of 50 mM pNPA in acetonitrile. Kinetics of hydrolysis of pNPA was observed by the increase in absorbance at 400 nm due to the appearance of the paranitrophenolate ion (pNP^−). In all cases, the observed hydrolysis rate in absorbance units per second (AU/s) under these conditions was constant (pseudo-zero order). Hydrolysis rates were corrected for the hydrolysis of pNPA by the buffer for each type of buffer used. […] The active protein concentration data was reproducible to within 5-8% in replicated experiments.

carbonic anhydrase II [2] = molecular target: T1, carbonic anhydrase II; assay: Size exclusion HPLC of multimers formed during refolding of carbonic anhydrase; design: purchased Sigma-Aldrich C2522; species or system bovine; conditions: [U]0 = 5 μM, 0.5 M additive; for Large multimers, percentage of total carbonic anhydrase: inferred by difference
Protocol: Size exclusion HPLC experiments were performed to analyze the distribution of multimers formed during refolding. CA was refolded with three different additives, 0.5M NaCl, 0.5M GuHCl, and 0.5M ArgHCl, relative to a base refolding buffers of 0.5M GuHCl, as done in the esterase activity assays above. […] Other than this protein concentration difference, these experiments allow direct comparison of how an additional 0.5M of the three different cations affect refolding.
The samples were not filtered prior to introduction into the HPLC column.
Size Exclusion HPLC—Size exclusion HPLC (SE-HPLC) experiments were performed on a Beckman System Gold HPLC instrument equipped with a Tosohaas G3000SWXL size exclusion column and a UV detector. 30 μl samples were introduced to the column by a constant flow of 1 ml/min mobile phase. Each sample ran for 15 minutes, with carbonic anhydrase eluting between 6 and 10 minutes, depending on its molecular weight and buffer. […] A mixture of lysozyme, carbonic anhydrase, and bovine serum albumin (monomer and dimer) was used as a standard to calibrate molecular weight to retention time. Using this calibration curve and the breakthrough time of the column, the largest multimer that could pass through the column was a 15-mer. When significant mass was missing from a chromatogram, large multimers were quantitated by difference. The presence of large multimers was confirmed via turbidity or dynamic light scattering for each buffer. The instrument was cleaned with 30 μl injections of 4M GuHCl, a denaturing concentration found to dissociate and elute precipitates and large soluble carbonic anhydrase multimers.

[3] = molecular target: T2, insulin binding to immobilized monoclonal anti-insulin (Homo sapiens, UniProt P01308); assay: Surface plasmon resonance (Biacore 3000): globular protein association/dissociation kinetics in buffer with additive; conditions: 0.5 M additive in HBS-EP, pH 7.4; estimated error 15%
T2 construct: purchased Sigma-Aldrich (insulin); Fitzgerald Industries (antibody) I8530; 10-130 clone M322214
T2 sequence (P01308 25-54 limits assumed): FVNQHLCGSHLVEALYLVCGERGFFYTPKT
T2 sequence (P01308 90-110 limits assumed): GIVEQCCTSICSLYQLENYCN
Protocol: Surface plasmon resonance experiments were conducted to measure the effect of added ArgHCl and GuHCl on the kinetics of globular protein association and dissociation versus an equimolar salt control (NaCl). The data set shown in the figure is a composition of 8 different concentration runs plus replicates, for a total of 16 runs. At t=140 sec, the flow cell with immobilized anti-insulin was exposed to a constant concentration of insulin in the range of 2 to 188 nM for 3 minutes. During this 3 minutes, the antibody and antigen were free to associate and dissociate. The net reaction is the binding of free antigen in solution, resulting in an increase in detector response proportional to the mass of antigen bound. At t=320 sec, the insulin concentration in the flow cell inlet is returned to zero, and the bound antigen then dissociates from the surface. All 16 runs were simultaneously fit to a binding model by minimizing the squared residuals to yield the association and dissociation rate constants, ka and kd. This process was repeated to yield association, dissociation, and equilibrium constant data for the model systems in various buffers as shown in Table 4.
Globular Protein Association Kinetics—Protein association and dissociation rate constants, ka and kd, were measured for globular proteins via surface plasmon resonance on a Biacore 3000 instrument. Monoclonal anti-insulin was immobilized on a Biacore CM5 sensor chip via amine coupling. The amount of immobilized antibody was selected to give a detector response in the range of 50-100 RU when antigen was present. A reference surface was created by activating and deactivating the surface without coupling an antibody to it.
Different concentrations of insulin in the nanomolar range ([…]) were prepared by dilution and injected serially into the antibody-containing and reference flow cells. […] Pocker, Y. & Biswas, Subhasis, B. (1981) Biochemistry 20, 4354-4361. The dissociation rate was sufficiently fast in buffer that a regeneration buffer was not required. Kinetic constants were extracted by simultaneous fitting of ka and kd to each set of sensorgrams using a 1:1 kinetic model in the BIAevaluation 3.0 software package.

RNase T1 = molecular target: T3, RNase T1 (Aspergillus oryzae, UniProt P00651); conditions: interpolated to mbulk 1.10 m; cited from earlier work
T3 sequence (P00651 27-130): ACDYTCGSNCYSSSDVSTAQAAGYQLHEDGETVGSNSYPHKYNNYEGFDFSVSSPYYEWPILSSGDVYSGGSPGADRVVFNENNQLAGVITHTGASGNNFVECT

[4] = molecular target: Human insulin (I8530), Sigma-Aldrich (human) (UniProt P01308); assay: SPR; dissociation rate constant in HBS-EP + 0.5 M ArgHCl relative to HBS-EP + 0.5 M NaCl
Sequence of Human insulin (I8530), Sigma-Aldrich (human) (P01308 25-54 limits assumed, chain 1 of 2): as the sequence (P01308 25-54 limits assumed) above

[5] = molecular target: Human insulin (I8530), Sigma-Aldrich (human) (UniProt P01308); assay: SPR, Biacore 3000, antibody immobilised on CM5, insulin as analyte, KD = kd/ka; HBS-EP + 0.5 M GuHCl
[6] = molecular target: Human insulin (I8530), Sigma-Aldrich (human) (UniProt P01308); assay: SPR; dissociation rate constant in HBS-EP + 0.5 M GuHCl relative to HBS-EP + 0.5 M NaCl
[7] = molecular target: Human insulin (I8530), Sigma-Aldrich (human) (UniProt P01308); assay: SPR, Biacore 3000, antibody immobilised on CM5, insulin as analyte, 1:1 model; HBS-EP + 0.5 M NaCl
[8] = molecular target: Human insulin (I8530), Sigma-Aldrich (human) (UniProt P01308); assay: SPR, Biacore 3000, antibody immobilised on CM5, insulin as analyte, KD = kd/ka; HBS-EP + 0.5 M ArgHCl
[9] = molecular target: Human insulin (I8530), Sigma-Aldrich (human) (UniProt P01308); assay: SPR, Biacore 3000, antibody immobilised on CM5, insulin as analyte, 1:1 model; HBS-EP + 0.5 M ArgHCl
[10] = molecular target: Human insulin (I8530), Sigma-Aldrich (human) (UniProt P01308); assay: SPR, Biacore 3000, antibody immobilised on CM5, insulin as analyte, 1:1 model; HBS-EP + 0.5 M GuHCl
[11] = molecular target: Human insulin (I8530), Sigma-Aldrich (human) (UniProt P01308); assay: SPR; association rate constant in HBS-EP + 0.5 M ArgHCl relative to HBS-EP + 0.5 M NaCl
[12] = molecular target: Human insulin (I8530), Sigma-Aldrich (human) (UniProt P01308); assay: SPR, Biacore 3000, antibody immobilised on CM5, insulin as analyte, KD = kd/ka; HBS-EP + 0.5 M NaCl
[13] = molecular target: Human insulin (I8530), Sigma-Aldrich (human) (UniProt P01308); assay: SPR; association rate constant in HBS-EP + 0.5 M GuHCl relative to HBS-EP + 0.5 M NaCl

T1 sequence (P00921 whole entry): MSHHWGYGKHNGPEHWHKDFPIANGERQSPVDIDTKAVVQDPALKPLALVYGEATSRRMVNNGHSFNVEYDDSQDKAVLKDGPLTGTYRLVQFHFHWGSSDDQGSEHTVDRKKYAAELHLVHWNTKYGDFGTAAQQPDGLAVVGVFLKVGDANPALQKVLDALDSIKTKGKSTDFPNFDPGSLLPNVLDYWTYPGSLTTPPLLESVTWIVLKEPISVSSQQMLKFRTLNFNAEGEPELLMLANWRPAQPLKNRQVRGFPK

Compound: [Cl-].[Na+] [NaCl, sodium chloride]
α/α0 (carbonic anhydrase II [1]; 0.5 M additive, relative to 0.5M NaCl, base buffer 0.5 M GuHCl): 1
α (refolding selectivity parameter, kr/kagg) (carbonic anhydrase II [1]; 0.5 M additive, base buffer 0.5 M GuHCl, fit to second-order aggregation model): 9.3 µM
order of yield of active protein as a function of buffer additive (carbonic anhydrase II [1]; equimolar (0.5M) additives): NaCl<<ArgHCl<GuHCl
A2, percentage of total carbonic anhydrase (carbonic anhydrase II [2]; time 2 min): 0%
A3-5, percentage of total carbonic anhydrase (carbonic anhydrase II [2]; time 2 min): 0%
A6-15, percentage of total carbonic anhydrase (carbonic anhydrase II [2]; time 2 min): 0%
M (monomer), percentage of total carbonic anhydrase (carbonic anhydrase II [2]; time 2 min): 56%
Large multimers, percentage of total carbonic anhydrase (carbonic anhydrase II [2]; time 2 min): 44%
A2, percentage of total carbonic anhydrase (carbonic anhydrase II [2]; time 20 min): 0%
A3-5, percentage of total carbonic anhydrase (carbonic anhydrase II [2]; time 20 min): 0%
A6-15, percentage of total carbonic anhydrase (carbonic anhydrase II [2]; time 20 min): 0%
M (monomer), percentage of total carbonic anhydrase (carbonic anhydrase II [2]; time 20 min): 56%
Large multimers, percentage of total carbonic anhydrase (carbonic anhydrase II [2]; time 20 min): 44%
A2, percentage of total carbonic anhydrase (carbonic anhydrase II [2]; time 38 min): 0%
A3-5, percentage of total carbonic anhydrase (carbonic anhydrase II [2]; time 38 min): 0%
A6-15, percentage of total carbonic anhydrase (carbonic anhydrase II [2]; time 38 min): 0%
M (monomer), percentage of total carbonic anhydrase (carbonic anhydrase II [2]; time 38 min): 56%
Large multimers, percentage of total carbonic anhydrase (carbonic anhydrase II [2]; time 38 min): 44%
ka [3]: 44000 M⁻¹ s⁻¹
kd [3]: 0.014 s⁻¹

Compound: NC(N)=O [Urea]
Experimental ΓXP (RNase T1): 6.4^a

kd/kd0 [4]: 1.6
Kd [5]: 2.4 µM
kd/kd0 [6]: 6.7
koff [7]: 0.014 s⁻¹
kon [7]: 44000 M⁻¹ s⁻¹
Kd [8]: 1.8 µM
koff [9]: 0.022 s⁻¹
kon [9]: 12000 M⁻¹ s⁻¹
koff [10]: 0.094 s⁻¹
kon [10]: 40000 M⁻¹ s⁻¹
ka/ka0 [11]: 0.27
Kd [12]: 0.32 µM
ka/ka0 [13]: 0.91
Compound: Monoclonal anti-insulin (10-130 clone M322214), Fitzgerald Industries (antibody)
